Assay results reported in paper PMC4493059, “The Crystal Structure of Thermotoga maritima Class III Ribonucleotide Reductase Lacks a Radical Cysteine Pre-Positioned in the Active Site” (PLoS ONE, 2015).
Each block holds one compound with its values, some of them ahead of it.

Assays:
[1] = target: anaerobic (class III) ribonucleotide reductase from Thermotoga maritima (Thermotoga maritima); experiment: crystal structure; tmNrdD dimer in the asymmetric unit, space group P2_(1); apo forms with glycerol, MES or citrate in the active site, and complexes with dATP or dATP/CTP; resolutions from 2.4 Å to 1.92 Å
tmNrdD = target: T1, tmNrdD (Thermotoga maritima, UniProt Q9WYL6); experiment: X-ray crystallography; format: binding
T1 construct: gene TM_0385; recombinant in E. coli, homodimer; residues to 651, Gly621 radical site
T1 sequence (Q9WYL6 entry or part of it): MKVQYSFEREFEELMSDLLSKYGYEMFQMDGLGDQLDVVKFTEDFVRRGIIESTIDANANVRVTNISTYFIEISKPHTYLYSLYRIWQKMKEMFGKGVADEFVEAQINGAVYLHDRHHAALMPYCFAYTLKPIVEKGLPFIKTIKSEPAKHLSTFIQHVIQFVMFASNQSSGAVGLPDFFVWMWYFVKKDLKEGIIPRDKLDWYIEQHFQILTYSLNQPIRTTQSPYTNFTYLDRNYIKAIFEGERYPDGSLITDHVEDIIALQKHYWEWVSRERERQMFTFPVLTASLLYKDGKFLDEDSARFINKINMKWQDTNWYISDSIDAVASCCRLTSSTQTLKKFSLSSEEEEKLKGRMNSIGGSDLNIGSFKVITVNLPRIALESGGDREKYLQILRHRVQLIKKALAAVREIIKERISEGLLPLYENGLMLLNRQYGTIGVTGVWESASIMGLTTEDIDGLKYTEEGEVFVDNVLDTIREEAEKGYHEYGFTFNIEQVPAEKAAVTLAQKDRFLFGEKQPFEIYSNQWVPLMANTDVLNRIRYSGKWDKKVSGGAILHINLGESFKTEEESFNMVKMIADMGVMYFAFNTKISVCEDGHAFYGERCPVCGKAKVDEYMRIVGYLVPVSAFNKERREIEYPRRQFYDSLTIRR

stoichiometry N [1]: 2
Compound: anaerobic (class III) ribonucleotide reductase from Thermotoga maritima (enzyme)

Compound: Nc1ncnc2c1ncn2[C@H]1C[C@H](O)[C@@H](COP(=O)(O)OP(=O)(O)OP(=O)(O)O)O1 [dATP]
X-ray crystallography (tmNrdD; allosteric specificity effector site at dimer interface, Mg2+ (Mn2+ substituted), dATP alone 4COL, also with CTP 4COJ, soak or co-crystal 0.5 mM dATP): The effector dATP binds at the dimer interface, along the length of helices αA and αB

Compound: Nc1ccn([C@@H]2O[C@H](COP(=O)(O)OP(=O)(O)OP(=O)(O)O)[C@@H](O)[C@H]2O)c(=O)n1 [CTP]
X-ray crystallography (tmNrdD; active site, with effector dATP, soak or co-crystal 2 mM CTP, also reduced to dCTP in assay with MBP-tmNrdG and T. maritima cell extract): represents the first structure of an anaerobic, class III RNR with a substrate
